Source: patent US9302999B2, “Substituted triazoles as herbicides” (E. I. DU PONT DE NEMOURS AND COMPANY, priority 2012, dated 2016)

What was measured:
Type in all cases: in vivo
[1] = test system: foxtail, giant (giant foxtail, Setaria faberii); experiment: Test A pre-/postemergence: foxtail, giant
Procedure, shortened: (§1)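 Compounds, formulated with surfactant in non-phytotoxic solvent, were applied as a directed soil spray preemergence and as postemergence sprays to 2–10 cm, one- to two-leaf seedlings grown in loam soil blended with sand; visual injury, 0–100, assessed ~10 days post-treatment against untreated controls.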

[2] = test system: velvetleaf (Abutilon theophrasti); experiment: Test A pre-/postemergence: velvetleaf
Procedure, shortened: as §1

[3] = test system: wheat (Triticum aestivum); experiment: Test A pre-/postemergence: wheat
Procedure, shortened: as §1

corn (Zea mays) = experiment: Test A pre-/postemergence: corn
Procedure, shortened: as §1

[4] = test system: sedge, umbrella (small-flower umbrella sedge Cyperus difformis); experiment: Test B flooded paddy: sedge, umbrella; conditions: Flood; 125 g ai/ha; applied to paddy water at 2-leaf stage; visually evaluated after 13 to 15 days
Procedure, shortened: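 Greenhouse assay lasting 13 to 15 days. Treatment was into water flooding pots 3 cm deep, at the 2-leaf stage, with that level sustained afterwards. Scores compare treated with control plants visually, 100 denoting complete control and 0 no effect; a dash marks no test result.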

[5] = test system: winter wheat (Triticum aestivum); experiment: Test C pre-/postemergence: winter wheat
Procedure, shortened: (§2)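 Visual injury scored 0–100 (100 = complete control) against untreated controls after 13–15 greenhouse days. Surfactant-containing solvent formulations applied either to soil after sowing (loam/sand) or over 1- to 4-leaf plants, 2–18 cm tall.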

[6] = test system: nutsedge, yellow (yellow nutsedge, Cyperus esculentus); experiment: Test C pre-/postemergence: nutsedge, yellow
Procedure, shortened: as §2

[7] = test system: pigweed (Amaranthus retroflexus); experiment: Test C pre-/postemergence: pigweed
Procedure, shortened: as §2

[8] = test system: chickweed (common chickweed, Stellaria media); experiment: Test C postemergence: chickweed
Procedure, shortened: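 Plants at the 1- to 4-leaf stage (2 to 18 cm tall), grown in pots of peat moss/vermiculite planting medium, received postemergence applications of the formulated test chemicals. After 13 to 15 days in a greenhouse, injury was scored visually versus controls from 0 (no effect) to 100 (complete control).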

Oilseed Rape = experiment: Test C pre-/postemergence: oilseed rape
[9] = Postemergence, 125 g ai/ha, 0 to 100 scale, 0 is no effect, 100 is complete control
[10] = Postemergence, 500 g ai/ha, 0 to 100 scale, 0 is no effect, 100 is complete control
[11] = Preemergence, 125 g ai/ha, 0 to 100 scale where 0 is no effect and 100 is complete control
[12] = Preemergence, 500 g ai/ha, 0 to 100 scale (0 no effect, 100 complete control)
[13] = Postemergence, 31 g ai/ha, scale 0 to 100 (0 no effect, 100 complete control)
[14] = Postemergence, 62 g ai/ha, scale 0 to 100 (0 no effect, 100 complete control)
[15] = Postemergence, 125 g ai/ha, scale 0 to 100, 0 no effect, 100 complete control
[16] = Postemergence, 250 g ai/ha, scale 0 to 100 (0 no effect, 100 complete control)
[17] = Preemergence, 31 g ai/ha, scale 0 (no effect) to 100 (complete control)
[18] = Preemergence, 62 g ai/ha, scale of 0 to 100, 0 is no effect, 100 is complete control
[19] = Preemergence, 125 g ai/ha, scale 0 to 100, 0 no effect, 100 complete control
[20] = Preemergence, 250 g ai/ha, scale 0 to 100, 0 no effect, 100 complete control
[21] = 31 g ai/ha, scale 0 to 100 (0 no effect, 100 complete control)
[22] = 62 g ai/ha, scale 0 to 100 (0 no effect, 100 complete control)
[23] = 125 g ai/ha, scale 0 to 100, 0 no effect, 100 complete control

CCc1nn(-c2ccc(C(F)(F)F)c(F)c2)nc1Oc1ccnc(C(F)(F)F)c1 [Compound 183]
Plant response rating, Foxtail, Giant [1, 9]: 90 | Foxtail, Giant plant response rating [1, 10]: 90 | Plant response rating, Foxtail, Giant [1, 11]: 100 | Plant response rating, Foxtail, Giant [1, 12]: 100 | Plant response rating, Velvetleaf [2, 9]: 100 | Velvetleaf plant response rating [2, 10]: 100 | Plant response rating, Velvetleaf [2, 11]: 70 | Plant response rating, Velvetleaf [2, 12]: 80 | Plant response rating, Wheat [3, 9]: 30 | Wheat plant response rating [3, 10]: 40 | Plant response rating, Wheat [3, 11]: 30 | Plant response rating, Wheat [3, 12]: 60 | Plant response rating, Corn (corn (Zea mays); [9]): 20 | Corn plant response rating (corn (Zea mays); [10]): 50 | Plant response rating, Corn (corn (Zea mays); [11]): 20 | Plant response rating, Corn (corn (Zea mays); [12]): 30 | Plant response rating, Sedge, Umbrella (0 to 100 scale, 0 is no effect, 100 is complete control) [4]: 95 | Plant response rating, Wheat [5, 13]: 10 | Plant response rating, Wheat [5, 14]: 20 | Plant response rating, Wheat [5, 15]: 20 | Plant response rating, Wheat [5, 16]: 30 | Plant response rating, Wheat [5, 17]: 5 | Plant response rating, Wheat [5, 18]: 10 | Plant response rating, Wheat [5, 19]: 35 | Plant response rating, Wheat [5, 20]: 40 | Plant response rating, Nutsedge, Yellow [6, 13]: 10 | Plant response rating, Nutsedge, Yellow [6, 14]: 10 | Plant response rating, Nutsedge, Yellow [6, 15]: 10 | Plant response rating, Nutsedge, Yellow [6, 16]: 10 | Plant response rating, Nutsedge, Yellow [6, 17]: 0 | Plant response rating, Nutsedge, Yellow [6, 18]: 0 | Plant response rating, Nutsedge, Yellow [6, 19]: 5 | Plant response rating, Nutsedge, Yellow [6, 20]: 5 | Plant response rating, Pigweed [7, 13]: 100 | Plant response rating, Pigweed [7, 15]: 100 | Plant response rating, Pigweed [7, 16]: 100 | Plant response rating, Pigweed [7, 17]: 100 | Plant response rating, Pigweed [7, 18]: 100 | Plant response rating, Pigweed [7, 19]: 100 | Plant response rating, Pigweed [7, 20]: 100 | Plant response rating, Chickweed [8, 21]: 75 | Plant response rating, Chickweed [8, 22]: 75 | Plant response rating, Chickweed [8, 23]: 80 | Plant response rating, Chickweed ([8]; 250 g ai/ha, scale 0 to 100): 98 | Plant response rating, Oilseed Rape (Oilseed Rape; [13]): 20 | Plant response rating, Oilseed Rape (Oilseed Rape; [20]): 100

CCOc1nn(-c2ccc(Cl)cc2)nc1Cc1ccnc(C(F)(F)F)c1 [Compound 188]
Plant response rating, Foxtail, Giant [1, 9]: 90 | Foxtail, Giant plant response rating [1, 10]: 90 | Plant response rating, Foxtail, Giant [1, 11]: 100 | Plant response rating, Foxtail, Giant [1, 12]: 100 | Plant response rating, Velvetleaf [2, 9]: 70 | Velvetleaf plant response rating [2, 10]: 90 | Plant response rating, Velvetleaf [2, 11]: 40 | Plant response rating, Velvetleaf [2, 12]: 90 | Plant response rating, Wheat [3, 9]: 70 | Wheat plant response rating [3, 10]: 70 | Plant response rating, Wheat [3, 11]: 30 | Plant response rating, Wheat [3, 12]: 50 | Plant response rating, Corn (corn (Zea mays); [9]): 40 | Corn plant response rating (corn (Zea mays); [10]): 50 | Plant response rating, Corn (corn (Zea mays); [11]): 10 | Plant response rating, Corn (corn (Zea mays); [12]): 20 | Plant response rating, Sedge, Umbrella (0 to 100 scale, 0 is no effect, 100 is complete control) [4]: 100 | Plant response rating, Wheat [5, 13]: 20 | Plant response rating, Wheat [5, 14]: 30 | Plant response rating, Wheat [5, 15]: 45 | Plant response rating, Wheat [5, 16]: 50 | Plant response rating, Wheat [5, 17]: 30 | Plant response rating, Wheat [5, 18]: 30 | Plant response rating, Wheat [5, 19]: 35 | Plant response rating, Wheat [5, 20]: 40 | Plant response rating, Nutsedge, Yellow [6, 13]: 10 | Plant response rating, Nutsedge, Yellow [6, 14]: 10 | Plant response rating, Nutsedge, Yellow [6, 15]: 10 | Plant response rating, Nutsedge, Yellow [6, 16]: 15 | Plant response rating, Nutsedge, Yellow [6, 17]: 5 | Plant response rating, Nutsedge, Yellow [6, 18]: 5 | Plant response rating, Nutsedge, Yellow [6, 19]: 5 | Plant response rating, Nutsedge, Yellow [6, 20]: 20 | Plant response rating, Pigweed [7, 13]: 95 | Plant response rating, Pigweed [7, 14]: 95 | Plant response rating, Pigweed [7, 15]: 98 | Plant response rating, Pigweed [7, 16]: 100 | Plant response rating, Pigweed [7, 17]: 100 | Plant response rating, Pigweed [7, 18]: 100 | Plant response rating, Pigweed [7, 19]: 100 | Plant response rating, Pigweed [7, 20]: 100 | Plant response rating, Chickweed [8, 21]: 80 | Plant response rating, Chickweed [8, 22]: 90 | Plant response rating, Chickweed [8, 23]: 90 | Plant response rating, Chickweed ([8]; 250 g ai/ha, scale 0 to 100): 95 | Plant response rating, Oilseed Rape (Oilseed Rape; [13]): 40 | Plant response rating, Oilseed Rape (Oilseed Rape; [20]): 100
